Data on 14 molecules can be found in patent US20240218022A1, “ANTI-VISTA MACROCYCLIC PEPTIDES AND COMPOSITIONS” (BRISTOL-MYERS SQUIBB COMPANY, priority 2022, published 2024).

As a reminder, the IC50 is the concentration at which inhibition is half-maximal.

Starred links: 1 amine or outer side, 2 acyl side, 3 side chain; linkers in the order of their positions; H or OH if unused. Positions of bridges follow the written chain, without caps; N, C: chain ends. Non-standard residues stand in square brackets, D forms with d. Residues, ends and D or L forms follow the SMILES beside them. γGlu = O=C(O)[C@H](CCC(=O)[*:2])N[*:1]; βAsp = O=C(O)[C@H](CC(=O)[*:2])N[*:1]; NMeL = CN[C@@H](CC(C)C)C(=O)O; Ahp(2) = CCCCC[C@H](N)C(=O)O; NMeNle = CCCC[C@H](NC)C(=O)O; Tle = CC(C)(C)[C@H](N)C(=O)O; NMeV = CN[C@H](C(=O)O)C(C)C; NHexGly = CCCCCCNCC(=O)O; Nle = CCCC[C@H](N)C(=O)O; Orn = NCCC[C@H](N)C(=O)O; Aun = NCCCCCCCCCCC(=O)O; AEEA = NCCOCCOCC(=O)O

One assay deals with T1, mouse VISTA (mVISTA) (Mus musculus, UniProt Q9D659).
T1 construct: expressed in transfected cells; host or cells: Human embryonic kidney 293T cells
T1 sequence (Q9D659 33-308): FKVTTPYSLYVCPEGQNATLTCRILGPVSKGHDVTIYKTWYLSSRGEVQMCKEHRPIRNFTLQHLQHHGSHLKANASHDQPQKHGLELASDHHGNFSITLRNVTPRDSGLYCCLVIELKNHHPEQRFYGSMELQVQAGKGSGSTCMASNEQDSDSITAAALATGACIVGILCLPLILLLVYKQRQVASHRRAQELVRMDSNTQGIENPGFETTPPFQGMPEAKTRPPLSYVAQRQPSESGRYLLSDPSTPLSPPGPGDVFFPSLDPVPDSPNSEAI
As to the kind of experiment: Cell-Based Binding High-Content Assay For mVISTA (HC CBA mVISTA). As to conditions: cell-based binding high-content assay, mVISTA; read-out: HC CBA miPr ISTA IC50. In a few lines: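 This high-content binding assay uses HEK293T cells expressing murine VISTA, measuring displacement of 2 nM biotinylated peptide by fluorescent streptavidin imaging. IC50 values come from four-parameter logistic fitting.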
As for `CCCCCCN1CC(=O)N[C@@H](Cc2ccc(O)cc2)C(=O)N[C@@H](CC(C)C)C(=O)N[C@@H](CC(N)=O)C(=O)N[C@@H](CCCN)C(=O)N(C)[C@@H](CC(C)C)C(=O)N[C@@H](CCCCC)C(=O)N2CCC[C@H]2C(=O)N[C@@H](C(C)(C)C)C(=O)N[C@@H](CO)C(=O)N[C@H](C(=O)N[C@@H](CC(=O)NCCOCCOCC(=O)N[C@@H](CC(=O)O)C(=O)NCCOCCOCC(=O)NCCCCCCCCCCC(=O)O)C(=O)O)CSCC(=O)N[C@@H](Cc2ccccc2)C(=O)N[C@@H](Cc2ccc(O)cc2)C(=O)N[C@@H](CC(=O)O)C1=O` [Example 2000] ({CH2CO}-FYD[NHexGly]YLN[Orn][NMeL][Ahp(2)]P[Tle]SC[βAsp][AEEA]D[AEEA][Aun]-OH; thioether N-14), the IC50 was found to be 16.1 nM.

Still in this assay, the particulars now being: read-out: HC CBA mVISTA IC50.
`CCCCCCN1CC(=O)N[C@@H](Cc2ccc(O)cc2)C(=O)N[C@@H](CC(C)C)C(=O)N[C@@H](CC(N)=O)C(=O)N[C@@H](CCCNC(=N)N)C(=O)N[C@@H](CC(C)C)C(=O)N[C@@H](CCCCC)C(=O)N2CCC[C@H]2C(=O)N[C@@H](C(C)C)C(=O)N[C@@H](CO)C(=O)N[C@H](C(=O)N[C@@H](CCC(=O)NCCCCCCCCCCC(=O)O)C(=O)O)CSCC(=O)N[C@@H](Cc2ccccc2)C(=O)N[C@@H](Cc2ccc(O)cc2)C(=O)N[C@@H](CC(=O)O)C1=O` [Example 2127] ({CH2CO}-FYD[NHexGly]YLNRL[Ahp(2)]PVSC[γGlu][Aun]-OH; thioether N-14): the IC50 is 15.9 nM. The same measure, in the same setting: under `CCCCCCN1CC(=O)N[C@@H](Cc2ccc(O)cc2)C(=O)N[C@@H](CC(C)C)C(=O)NCC(=O)N[C@@H](CCCNC(=N)N)C(=O)N[C@@H](CC(C)C)C(=O)N[C@@H](CCCCC)C(=O)N2CCC[C@H]2C(=O)N[C@@H](C(C)C)C(=O)N[C@@H](CO)C(=O)N[C@H](C(=O)N[C@@H](CCC(=O)NCCCCCCCCCCC(=O)O)C(=O)O)CSCC(=O)N[C@@H](Cc2ccccc2)C(=O)N[C@@H](Cc2ccc(O)cc2)C(=O)N[C@@H](CC(=O)O)C1=O` [Example 2128] ({CH2CO}-FYD[NHexGly]YLGRL[Ahp(2)]PVSC[γGlu][Aun]-OH; thioether N-14) stands 30.1 nM; under `CCCCCCN1CC(=O)N[C@@H](Cc2ccc(O)cc2)C(=O)N[C@@H](CCCCC)C(=O)N[C@@H](CC(N)=O)C(=O)N[C@@H](CCCNC(=N)N)C(=O)N[C@@H](Cc2c[nH]c3ccccc23)C(=O)N[C@@H](CCCCC)C(=O)N2CCC[C@H]2C(=O)N[C@@H](C(C)C)C(=O)N[C@@H](CO)C(=O)N[C@H](C(=O)N[C@@H](CCC(=O)NCCCCCCCCCCC(=O)O)C(=O)O)CSCC(=O)N[C@@H](Cc2ccccc2)C(=O)N[C@@H](Cc2ccc(O)cc2)C(=O)N[C@@H](CC(=O)O)C1=O` [Example 2129] ({CH2CO}-FYD[NHexGly]Y[Ahp(2)]NRW[Ahp(2)]PVSC[γGlu][Aun]-OH; thioether N-14), 16.6 nM. Still for that read-out and setting: under `CCCCCCN1CC(=O)N[C@@H](Cc2ccc(O)cc2)C(=O)N[C@@H](CCCC)C(=O)NCC(=O)N[C@@H](CCCNC(=N)N)C(=O)N[C@@H](CC(C)C)C(=O)N[C@@H](CCCCC)C(=O)N2CCC[C@H]2C(=O)N[C@@H](C(C)C)C(=O)N[C@@H](CC(N)=O)C(=O)N[C@H](C(=O)N[C@@H](CCC(=O)NCCCCCCCCCCC(=O)O)C(=O)O)CSCC(=O)N[C@@H](Cc2ccccc2)C(=O)N[C@@H](Cc2ccc(O)cc2)C(=O)N[C@@H](CC(=O)O)C1=O` [Example 2130] ({CH2CO}-FYD[NHexGly]Y[Nle]GRL[Ahp(2)]PVNC[γGlu][Aun]-OH; thioether N-14) stands 37.2 nM. With `CCCCCCN1CC(=O)N[C@@H](Cc2ccc(O)cc2)C(=O)N[C@@H](CC(C)C)C(=O)N[C@@H](CC(N)=O)C(=O)N[C@@H](CCCNC(=N)N)C(=O)N(C)[C@@H](CCCC)C(=O)N[C@@H](CCCCC)C(=O)N2CCC[C@H]2C(=O)N[C@@H](C(C)(C)C)C(=O)N[C@@H](CO)C(=O)N[C@H](C(=O)N[C@@H](CCC(=O)NCCCCCCCCCCC(=O)O)C(=O)O)CSCC(=O)N[C@@H](Cc2ccccc2)C(=O)N[C@@H](Cc2c[nH]c3ccccc23)C(=O)N[C@@H](CC(=O)O)C1=O` [Example 2131] ({CH2CO}-FWD[NHexGly]YLNR[NMeNle][Ahp(2)]P[Tle]SC[γGlu][Aun]-OH; thioether N-14), the IC50 was 38 nM. On the same count and under the same terms, the value for `CCCCCCN1CC(=O)N[C@@H](Cc2ccc(O)cc2)C(=O)N[C@@H](CC(C)C)C(=O)N[C@@H](CC(N)=O)C(=O)N[C@@H](CCCN)C(=O)N(C)[C@@H](CCCC)C(=O)N[C@@H](CCCCC)C(=O)N2CCC[C@H]2C(=O)N[C@@H](C(C)(C)C)C(=O)N[C@@H](CO)C(=O)N[C@H](C(=O)N[C@@H](CCC(=O)NCCCCCCCCCCC(=O)O)C(=O)O)CSCC(=O)N[C@@H](Cc2ccccc2)C(=O)N[C@@H](Cc2ccc(O)cc2)C(=O)N[C@@H](CC(=O)O)C1=O` [Example 2132] ({CH2CO}-FYD[NHexGly]YLN[Orn][NMeNle][Ahp(2)]P[Tle]SC[γGlu][Aun]-OH; thioether N-14) was 23.5 nM; that for `CCCCCCN1CC(=O)N[C@@H](Cc2ccc(O)cc2)C(=O)N[C@@H](CC(C)C)C(=O)N[C@@H](CC(N)=O)C(=O)N[C@@H](CCCNC(=N)N)C(=O)N(C)[C@@H](C(C)C)C(=O)N[C@@H](CCCCC)C(=O)N2CCC[C@H]2C(=O)N[C@@H](C(C)(C)C)C(=O)N[C@@H](CO)C(=O)N[C@H](C(=O)N[C@@H](CCC(=O)NCCCCCCCCCCC(=O)O)C(=O)O)CSCC(=O)N[C@@H](Cc2ccccc2)C(=O)N[C@@H](Cc2ccc(O)cc2)C(=O)N[C@@H](CC(=O)O)C1=O` [Example 2133] ({CH2CO}-FYD[NHexGly]YLNR[NMeV][Ahp(2)]P[Tle]SC[γGlu][Aun]-OH; thioether N-14) was 24 nM; that for `CCCCCCN1CC(=O)N[C@@H](Cc2ccc(O)cc2)C(=O)N[C@@H](CC(C)C)C(=O)N[C@@H](CC(N)=O)C(=O)N[C@@H](CCCN)C(=O)N(C)[C@@H](CCCC)C(=O)N[C@@H](CCCCC)C(=O)N2CCC[C@H]2C(=O)N[C@@H](C(C)(C)C)C(=O)N[C@@H](CO)C(=O)N[C@H](C(=O)N[C@@H](CCC(=O)NCCCCCCCCCCC(=O)O)C(=O)O)CSCC(=O)N[C@@H](Cc2ccccc2)C(=O)N[C@@H](Cc2c[nH]c3ccccc23)C(=O)N[C@@H](CC(=O)O)C1=O` [Example 2134] ({CH2CO}-FWD[NHexGly]YLN[Orn][NMeNle][Ahp(2)]P[Tle]SC[γGlu][Aun]-OH; thioether N-14) was 21.7 nM. On the same count and under the same terms, under `CCCCCCN1CC(=O)N[C@@H](Cc2ccc(O)cc2)C(=O)N[C@@H](CC(C)C)C(=O)N[C@@H](CC(N)=O)C(=O)N[C@@H](CCCNC(=N)N)C(=O)N(C)[C@@H](CC(C)C)C(=O)N[C@@H](CCCCC)C(=O)N2CCC[C@H]2C(=O)N[C@@H](C(C)(C)C)C(=O)N[C@@H](CO)C(=O)N[C@H](C(=O)N[C@@H](CCC(=O)NCCCCCCCCCCC(=O)O)C(=O)O)CSCC(=O)N[C@@H](Cc2ccccc2)C(=O)N[C@@H](Cc2ccc(O)cc2)C(=O)N[C@@H](CC(=O)O)C1=O` [Example 2135] ({CH2CO}-FYD[NHexGly]YLNR[NMeL][Ahp(2)]P[Tle]SC[γGlu][Aun]-OH; thioether N-14) stands 31 nM. On the same count and under the same terms, under `CCCCCCN1CC(=O)N[C@@H](Cc2ccc(O)cc2)C(=O)N[C@@H](CC(C)C)C(=O)N[C@@H](CC(N)=O)C(=O)N[C@@H](CCCNC(=N)N)C(=O)N(C)[C@@H](CCCC)C(=O)N[C@@H](CCCCC)C(=O)N2CCC[C@H]2C(=O)N[C@@H](C(C)(C)C)C(=O)N[C@@H](CO)C(=O)N[C@H](C(=O)N[C@@H](CCC(=O)NCCCCCCCCCCC(=O)O)C(=O)O)CSCC(=O)N[C@@H](Cc2ccccc2)C(=O)N[C@@H](Cc2ccc(O)cc2)C(=O)N[C@@H](CC(=O)O)C1=O` [Example 2136] ({CH2CO}-FYD[NHexGly]YLNR[NMeNle][Ahp(2)]P[Tle]SC[γGlu][Aun]-OH; thioether N-14) stands 19.8 nM. Consider `CCCCCCN1CC(=O)N[C@@H](Cc2ccc(O)cc2)C(=O)N[C@@H](CC(C)C)C(=O)N[C@@H](CC(N)=O)C(=O)N[C@@H](CCCN)C(=O)N(C)[C@@H](C(C)C)C(=O)N[C@@H](CCCCC)C(=O)N2CCC[C@H]2C(=O)N[C@@H](C(C)(C)C)C(=O)N[C@@H](CO)C(=O)N[C@H](C(=O)N[C@@H](CCC(=O)NCCCCCCCCCCC(=O)O)C(=O)O)CSCC(=O)N[C@@H](Cc2ccccc2)C(=O)N[C@@H](Cc2ccc(O)cc2)C(=O)N[C@@H](CC(=O)O)C1=O` [Example 2137] ({CH2CO}-FYD[NHexGly]YLN[Orn][NMeV][Ahp(2)]P[Tle]SC[γGlu][Aun]-OH; thioether N-14), for which the IC50 is 18 nM. The same measure, in the same setting: the value for `CCCCCCN1CC(=O)N[C@@H](Cc2ccc(O)cc2)C(=O)N[C@@H](CC(C)C)C(=O)N[C@@H](CC(N)=O)C(=O)N[C@@H](CCCN)C(=O)N(C)[C@@H](CC(C)C)C(=O)N[C@@H](CCCCC)C(=O)N2CCC[C@H]2C(=O)N[C@@H](C(C)(C)C)C(=O)N[C@@H](CO)C(=O)N[C@H](C(=O)N[C@@H](CCC(=O)NCCCCCCCCCCC(=O)O)C(=O)O)CSCC(=O)N[C@@H](Cc2ccccc2)C(=O)N[C@@H](Cc2ccc(O)cc2)C(=O)N[C@@H](CC(=O)O)C1=O` [Example 2138] ({CH2CO}-FYD[NHexGly]YLN[Orn][NMeL][Ahp(2)]P[Tle]SC[γGlu][Aun]-OH; thioether N-14) was 33 nM; that for `CCCCCCN1CC(=O)N[C@@H](Cc2ccc(O)cc2)C(=O)N[C@@H](CCCCN)C(=O)N[C@@H](CC(N)=O)C(=O)N[C@@H](CCCN)C(=O)N(C)[C@@H](CCCC)C(=O)N[C@@H](CCCCC)C(=O)N2CCC[C@H]2C(=O)N[C@@H](C(C)(C)C)C(=O)N[C@@H](CO)C(=O)N[C@H](C(=O)N[C@@H](CCC(=O)NCCCCCCCCCCC(=O)O)C(=O)O)CSCC(=O)N[C@@H](Cc2ccccc2)C(=O)N[C@@H](Cc2ccc(O)cc2)C(=O)N[C@@H](CC(=O)O)C1=O` [Example 2139] ({CH2CO}-FYD[NHexGly]YKN[Orn][NMeNle][Ahp(2)]P[Tle]SC[γGlu][Aun]-OH; thioether N-14) was 45.7 nM.
